Consider seven compounds from article PMC3726001 (Bioorganic & medicinal chemistry letters, 2010).

≈ marks a conversion by molar mass, not a printed value.

One series can be described thus: Aqueous solubility. The format is physicochemical.
The test system of a further series is guinea pigs. Conditions: cited from earlier work.
The subject of another series is dogs. The following applies: cited from earlier work.
For series [1], the system named is (+)-methamphetamine (METH) self-administration. Conditions: rats; effect not surmounted by METH; cited from earlier work.
In series [2] the test system is (+)-METH-induced dopaminergic toxicity. Conditions: rats; repeated administration prior to (+)-METH self-administration; cited from earlier work.
Series [3] deals with [3H]DTBZ-binding site on VMAT2 (Rattus norvegicus, UniProt Q01827). The series can be described thus: [3H]DTBZ binding to VMAT2.
[3H]DTBZ-binding site on VMAT2, sequence (Q01827 whole entry): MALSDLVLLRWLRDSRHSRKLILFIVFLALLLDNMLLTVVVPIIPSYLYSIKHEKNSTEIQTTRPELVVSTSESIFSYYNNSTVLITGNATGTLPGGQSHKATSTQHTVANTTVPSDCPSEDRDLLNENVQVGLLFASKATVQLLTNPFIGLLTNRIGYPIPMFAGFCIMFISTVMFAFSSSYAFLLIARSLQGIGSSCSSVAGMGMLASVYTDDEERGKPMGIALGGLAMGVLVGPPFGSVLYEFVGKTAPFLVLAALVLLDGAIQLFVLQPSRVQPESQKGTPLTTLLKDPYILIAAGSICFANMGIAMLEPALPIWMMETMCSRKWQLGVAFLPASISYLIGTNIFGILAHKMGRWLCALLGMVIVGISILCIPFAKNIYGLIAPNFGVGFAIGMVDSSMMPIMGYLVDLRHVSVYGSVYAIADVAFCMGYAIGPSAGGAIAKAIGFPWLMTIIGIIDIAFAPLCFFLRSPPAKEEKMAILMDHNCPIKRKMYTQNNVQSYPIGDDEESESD
A further series has as its target VMAT2 (Rattus norvegicus, UniProt Q01827). Description: Inhibition of [3H]DA uptake into synaptic vesicles. The format is biochemical.

VMAT2, sequence (Q01827 whole entry): as above

With `CN1[C@@H](CCc2ccccc2)CCC[C@H]1CCc1ccccc1` [compound 1, N-methyl-cis-2,6-diphenethylpiperidine], in “Aqueous solubility”, the solubility – broadly, the concentration that dissolves in the medium under given conditions – came to 300 µg/mL (≈ 976 µM). For the same compound, the “pharmacological action in guinea pigs” value with guinea pigs is given as “peripheral spasmolytic, ‘central stimulating’ action”. In addition, the respiratory analeptic activity entry in the series on dogs is reported as “marked respiratory analeptic activity”.

Regarding `CN1[C@@H](CC(=O)c2ccccc2)CCC[C@H]1C[C@H](O)c1ccccc1` [compound 2, lobeline], the “effect on (+)-METH self-administration” value in series [1] is given as “inhibits”. In addition, the “effect on (+)-METH-induced dopaminergic toxicity” value in series [2] was “prevents”.

In the case of `CN1[C@@H](CCc2cccnc2)CCC[C@H]1CCc1cccnc1` [compound 14], in series [3] (compared to lobelane), the “fold less potent than lobelane in binding to the [3H]DTBZ binding site” value was “about 30 fold”.

Take `CN1[C@@H](CCc2ccncc2)CCC[C@H]1CCc1ccncc1` [compound 21]: the “binding to the [3H]DTBZ binding site compared to lobelane” value (“binding … compared to lobelane” for short) in series [3] (compared to lobelane) is recorded as “marginally lower in binding affinity”.

On to `CN1[C@@H](CCc2ccc3ccccc3n2)CCC[C@H]1CCc1ccc2ccccc2n1.Cl` [compound 22], for which the “potency in inhibiting [3H]DA uptake compared to lobelane” value on VMAT2 is on record as “equipotent with lobelane”. Moreover, the “water solubility characteristics compared to lobelane” value in the series “Aqueous solubility” was “improved water solubility”. Besides, in series [3], the “affinity for the [3H]DTBZ binding site” value was “submicromolar affinity”. Also, the “binding … compared to lobelane” value in series [3] (compared to lobelane) is “almost as avidly as lobelane”.

Consider `CN1[C@@H](CCc2ccnc3ccccc23)CCC[C@H]1CCc1ccnc2ccccc12.Cl` [compound 23], for which, at VMAT2, the “potency in inhibiting [3H]DA uptake compared to lobelane” value is “equipotent with lobelane”. In addition, the “water solubility characteristics compared to lobelane” value in the series “Aqueous solubility” is “improved water solubility”. Moreover, the “binding … compared to lobelane” value in series [3] (compared to lobelane) is “almost as avidly as lobelane”.

Take `CN1[C@@H](CCc2c[nH]c3ccccc23)CCC[C@H]1CCc1c[nH]c2ccccc12` [compound 24]: in series [3], the “affinity for the [3H]DTBZ binding site” value is recorded as “greatly diminished affinity”.
